Source: PMC4315410, “A New PAMPA Model Proposed on the Basis of a Synthetic Phospholipid Membrane” (PLoS ONE, 2015)
Counter-ions that a name gives are not always drawn.

What was measured:
[1] = PAMPA with synthetic phospholipid membrane, octyl chain (C8); assay type: in vitro ADME; conditions: for Papp at 16 h: PAMPA, read-out: P e
Description: (§1) In PAMPA, a “sandwich” structure was formed by a 96-well microtiter plate and a 96-well filter plate from Millipore (IPVH, 125 μm thick filter, 0.45 μm pore), then wetted with a 4 μl 2% w/v phospholipid compound solution in n-dodecane [27].
(§2) The stock solutions of the drug samples were prepared at 10 mM concentrations in DMSO and stored at 0°C before use. Before being added to a 96-well filter plate, the stock solution was diluted first with buffer to achieve a final sample concentration of 10∼50 μM and to reduce the DMSO concentration below 1% (v/v).
(§3) The PAMPA plate was filled with a 300 μl diluted drug solution to prepare the “donor” wells, and the 96-well filter plate containing a synthetic phospholipid membrane was then placed on the donor wells. The “acceptor” wells were filled with 200 μl of buffer solution and placed on top of the “sandwich”, and the PAMPA instruments were incubated at 25°C in a sealed and saturated humidity container for a specified time. After reaching the permeation time, the PAMPA plate sandwich was separated, and the amount of drugs in both the donor and acceptor compartments were measured by comparing the experimental spectra with the UV spectrum (220∼400 nm) obtained from reference standards.
(§4) The factor S was the fraction of samples remaining in the donor and the acceptor wells at time t.
(§5) In the incubation time assays, the pH was 7.4 in both the donor and acceptor wells. In the pH-gradient assays, the pH of the drug solutions was varied using NaOH-treated universal buffer (pION Inc.) in the donor wells, and the pH in the acceptor solution was pH 7.4 [15]. In addition, the incubation time in the pH-gradient test assays was 16 h.

[2] = PAMPA with synthetic phospholipid membrane, decyl chain (C10); assay type: in vitro ADME; conditions: for Papp at 16 h: PAMPA, read-out: P e
Description: as §1, §2, §3, §4, §5

[3] = PAMPA with synthetic phospholipid membrane, lauryl chain (C12); assay type: in vitro ADME; conditions: for Papp at 16 h: PAMPA, read-out: P e
Description: as §1, §2, §3, §4, §5

[4] = design: method as in DrugBank database; conditions: ref DrugBank database; cited from earlier work
[5] = design: method as in Chinese Pharmacopoeia, 2005 edition and references 15, 27, 38; conditions: ref Chinese Pharmacopoeia, 2005 edition and references 15, 27, 38; cited from earlier work
[6] = design: method as in PMID 11576780, PMID 9691477; conditions: cited from earlier work
[7] = C8, donor pH 4.6, acceptor pH 7.4, 16 h
[8] = C8, donor pH 4.98, acceptor pH 7.4, 16 h
[9] = C8, donor pH 6.57, acceptor pH 7.4, 16 h
[10] = C8, donor pH 8.2, acceptor pH 7.4, 16 h
[11] = C8, donor pH 9.32, acceptor pH 7.4, 16 h
[12] = pH 7.4, C8 membrane, incubation time 16 h, pH 7.4 donor and acceptor, 25°C
[13] = C10, donor pH 4.6, acceptor pH 7.4, 16 h
[14] = C10, donor pH 9.32, acceptor pH 7.4, 16 h
[15] = C10, donor pH 4.98, acceptor pH 7.4, 16 h
[16] = C10, donor pH 6.57, acceptor pH 7.4, 16 h
[17] = C10, donor pH 8.2, acceptor pH 7.4, 16 h
[18] = pH 7.4, C10 membrane, incubation time 16 h, pH 7.4 donor and acceptor, 25°C
[19] = C12, donor pH 4.98, acceptor pH 7.4, 16 h
[20] = C12, donor pH 8.2, acceptor pH 7.4, 16 h
[21] = C12, donor pH 9.32, acceptor pH 7.4, 16 h
[22] = C12, donor pH 4.6, acceptor pH 7.4, 16 h
[23] = C12, donor pH 6.57, acceptor pH 7.4, 16 h
[24] = pH 7.4, C12 membrane, incubation time 16 h, pH 7.4 donor and acceptor, 25°C

Row | Structure (SMILES) | Papp at 16 h [1, 7] | Papp at 16 h [1, 9] | Papp at 16 h [1, 12] | P e [2, 13] | P e [2, 14] | Papp at 16 h [2, 16] | Papp at 16 h [2, 18] | P e [3, 19] | P e [3, 20] | P e [3, 21] | Papp at 16 h [3, 24] | Water solubility [4] | P e [1, 8] | P e [1, 9] | P e [1, 10] | P e [1, 11] | P e [2, 15] | P e [2, 17] | P e [3, 22] | P e [3, 23] | further results
1 | CC(C)Cc1ccc(C(C)C(=O)O)cc1 (stereo not drawn) [Ibuprofen] | 23 ×10⁻⁶ cm/s | 8.5 ×10⁻⁶ cm/s | 13.9 ± 0.5 ×10⁻⁶ cm/s | 23.0 ×10^–6 cm/s | 2.6 ×10^–6 cm/s | 7 ×10⁻⁶ cm/s | 14.5 ± 0.5 ×10⁻⁶ cm/s | 23.0 ×10^–6 cm/s | 1.5 ×10^–6 cm/s | 2.6 ×10^–6 cm/s | 16.7 ± 0.4 ×10⁻⁶ cm/s | 21 mg | – | – | – | – | – | – | – | – | Papp at 16 h [1, 8]: 23.5 ×10⁻⁶ cm/s; Papp at 16 h [1, 10]: 3 ×10⁻⁶ cm/s; Papp at 16 h [1, 11]: 2.6 ×10⁻⁶ cm/s; Papp at 16 h [2, 15]: 22 ×10⁻⁶ cm/s; Papp at 16 h [2, 17]: 1.5 ×10⁻⁶ cm/s; Papp at 16 h [3, 22]: 22.5 ×10⁻⁶ cm/s; Papp at 16 h [3, 23]: 7.5 ×10⁻⁶ cm/s
2 | CN(C)C(=N)N=C(N)N [Metformin Hydrochloride] | – | – | 2.4 ± 0.4 ×10⁻⁶ cm/s | 1.5 ×10^–7 cm/s | 7.2 ×10^–7 cm/s | – | 2.9 ± 0.3 ×10⁻⁶ cm/s | 1.7 ×10^–7 cm/s | 4.9 ×10^–7 cm/s | 7.3 ×10^–7 cm/s | 3.4 ± 0.2 ×10⁻⁶ cm/s | – | 1.6 ×10^–7 cm/s | 3.2 ×10^–7 cm/s | 4.9 ×10^–7 cm/s | 7.4 ×10^–7 cm/s | 1.6 ×10^–7 cm/s | 5.8 ×10^–7 cm/s | 1.6 ×10^–7 cm/s | 3.1 ×10^–7 cm/s | P e [1, 7]: 1.5 ×10^–7 cm/s; P e [2, 16]: 3.2 ×10^–7 cm/s
3 | O=C(N[C@H](CO)[C@H](O)c1ccc([N+](=O)[O-])cc1)C(Cl)Cl [Chloroamphenicol] | 4.3 ×10⁻⁶ cm/s | 1.7 ×10⁻⁶ cm/s | 8.8 ± 0.2 ×10⁻⁶ cm/s | – | 0.5 ×10^–6 cm/s | 1 ×10⁻⁶ cm/s | 9.8 ± 0.3 ×10⁻⁶ cm/s | 4.2 ×10^–6 cm/s | 0.7 ×10^–6 cm/s | 0.5 ×10^–6 cm/s | 14.6 ± 0.3 ×10⁻⁶ cm/s | – | 4.2 ×10^–6 cm/s | – | – | – | – | – | – | – | Papp at 16 h [1, 10]: 0.6 ×10⁻⁶ cm/s; Papp at 16 h [1, 11]: 0.5 ×10⁻⁶ cm/s; Papp at 16 h [2, 13]: 4.2 ×10⁻⁶ cm/s; Papp at 16 h [2, 15]: 4 ×10⁻⁶ cm/s; Papp at 16 h [2, 17]: 0.7 ×10⁻⁶ cm/s; Papp at 16 h [3, 22]: 4.4 ×10⁻⁶ cm/s; Papp at 16 h [3, 23]: 1.5 ×10⁻⁶ cm/s; pKa (first value listed) [5]: 4.3
4 | NC(N)=Nc1nc(CSCCC(N)=NS(N)(=O)=O)cs1 [Famotidine] | 1.1 ×10⁻⁶ cm/s | 5 ×10⁻⁶ cm/s | 2.7 ± 0.3 ×10⁻⁶ cm/s | – | – | 5.7 ×10⁻⁶ cm/s | 2.8 ± 0.2 ×10⁻⁶ cm/s | 1.2 ×10^–6 cm/s | – | – | 3.2 ± 0.4 ×10⁻⁶ cm/s | 1000 mg | – | – | – | – | 2.2 ×10^–6 cm/s | – | 1.2 ×10^–6 cm/s | – | Papp at 16 h [1, 8]: 2.2 ×10⁻⁶ cm/s; Papp at 16 h [1, 11]: 5.1 ×10⁻⁶ cm/s; Papp at 16 h [2, 13]: 1.2 ×10⁻⁶ cm/s; Papp at 16 h [2, 14]: 5.5 ×10⁻⁶ cm/s; Papp at 16 h [3, 23]: 6 ×10⁻⁶ cm/s; Papp at 16 h [3, 21]: 6.1 ×10⁻⁶ cm/s; pKa (first value listed) [5]: 7.24; pKa (second value listed) [5]: 11.19; %FA (human fraction absorbed) [6]: 40%
5 | COCCc1ccc(OCC(O)CNC(C)C)cc1 (stereo not drawn) [Metoprolol Tartrate] | – | – | 9.2 ± 0.6 ×10⁻⁶ cm/s | 1.4 ×10^–5 cm/s | 9.3 ×10^–5 cm/s | – | 10.3 ± 0.5 ×10⁻⁶ cm/s | 2.6 ×10^–5 cm/s | 8.0 ×10^–5 cm/s | 9.1 ×10^–5 cm/s | 11.7 ± 0.5 ×10⁻⁶ cm/s | 16900 mg | 2.7 ×10^–5 cm/s | 5.1 ×10^–5 cm/s | 8.0 ×10^–5 cm/s | 8.9 ×10^–5 cm/s | 2.5 ×10^–5 cm/s | 7.5 ×10^–5 cm/s | 1.6 ×10^–5 cm/s | 5.0 ×10^–5 cm/s | P e [2, 16]: 5.3 ×10^–5 cm/s
6 | CC1(C)S[C@@H]2[C@H](NC(=O)[C@H](N)c3ccc(O)cc3)C(=O)N2[C@H]1C(=O)O [Amoxicillin] | – | – | 4.6 ± 0.4 ×10⁻⁶ cm/s | 1.9 ×10^–7 cm/s | 2.2 ×10^–7 cm/s | – | 5.3 ± 0.3 ×10⁻⁶ cm/s | 2.1 ×10^–7 cm/s | 2.3 ×10^–7 cm/s | 2.0 ×10^–7 cm/s | 5.7 ± 0.4 ×10⁻⁶ cm/s | – | 2.1 ×10^–7 cm/s | 2.6 ×10^–7 cm/s | 2.4 ×10^–7 cm/s | 2.2 ×10^–7 cm/s | 2.1 ×10^–7 cm/s | 2.3 ×10^–7 cm/s | 1.9 ×10^–7 cm/s | 2.6 ×10^–7 cm/s | P e [1, 7]: 1.9 ×10^–7 cm/s; P e [2, 16]: 2.5 ×10^–7 cm/s; pKa (second value listed) [5]: 7.31; pKa (third value listed) [5]: 9.53; %FA (human fraction absorbed) [6]: 93%
7 | CCn1cc(C(=O)O)c(=O)c2cc(F)c(N3CCNCC3)cc21 [Norfloxacin] | 1.9 ×10⁻⁶ cm/s | 2.6 ×10⁻⁶ cm/s | 0.9 ± 0.1 ×10⁻⁶ cm/s | 1.9 ×10^–6 cm/s | 2.3 ×10^–6 cm/s | 2.5 ×10⁻⁶ cm/s | 1 ± 0.1 ×10⁻⁶ cm/s | 2.2 ×10^–6 cm/s | 2.6 ×10^–6 cm/s | 2.2 ×10^–6 cm/s | – | 178000 mg | – | – | 2.5 ×10^–6 cm/s | 2.2 ×10^–6 cm/s | – | 2.5 ×10^–6 cm/s | – | 2.6 ×10^–6 cm/s | Papp at 16 h [1, 8]: 2.3 ×10⁻⁶ cm/s; Papp at 16 h [2, 15]: 2.2 ×10⁻⁶ cm/s; P e ([3]; C12 membrane, incubation time 16 h, pH 7.4 donor and acceptor, 25°C): 1.0±0.1 10^−6 cm/s; Papp at 16 h [3, 22]: 1.8 ×10⁻⁶ cm/s; pKa (first value listed) [5]: 6.26
8 | CNC(=C[N+](=O)[O-])NCCSCc1ccc(CN(C)C)o1 [Ranitidine] | – | – | 1.2 ± 0.1 ×10⁻⁶ cm/s | 1.6 ×10^–7 cm/s | 5.5 ×10^–7 cm/s | – | 1.4 ± 0.1 ×10⁻⁶ cm/s | 1.8 ×10^–7 cm/s | 4.9 ×10^–7 cm/s | 5.4 ×10^–7 cm/s | 1.5 ± 0.1 ×10⁻⁶ cm/s | 24.7 mg | 1.8 ×10^–7 cm/s | 3.2 ×10^–7 cm/s | 4.9 ×10^–7 cm/s | – | 1.8 ×10^–7 cm/s | 5.8 ×10^–7 cm/s | 1.6 ×10^–7 cm/s | 3.2 ×10^–7 cm/s | P e [1, 7]: 1.6 ×10^–7 cm/s; P e [2, 16]: 3.1 ×10^–7 cm/s; %FA (human fraction absorbed) [6]: 55%
